Assays:
Assay in all cases: Colony formation (CFU) assay
Assay type in all cases: cell-based
TGBC1TKB = settings: biliary tract
Method in brief: (§1)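 Plating density is first chosen so colonies stay clearly separated over roughly 14 days. Drug-containing medium (USP1 inhibitor, niraparib or olaparib, or DMSO) goes on at day 8. Staining with crystal violet is quantified by absorbance at 565 nm after acetic acid extraction.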

OVA2BUR = settings: ovary
Method in brief: as §1

SUM149PT = settings: Homo sapiens, breast
Method in brief: as §1

YKG1 = settings: Homo sapiens, YKG-1; YKG1, nervous system
Method in brief: as §1

U2OS = settings: Homo sapiens, bone
Method in brief: as §1

HEC1B = settings: Homo sapiens, HEC-1B, uterus
Method in brief: as §1

HT144 = settings: Homo sapiens, HT-144; HT144, skin
Method in brief: as §1

BT474 = settings: Homo sapiens, BT-474; BT474, breast
Method in brief: as §1

PK45H = settings: pancreas
Method in brief: as §1

HBCx17 = settings: HBCx17, breast
Method in brief: as §1

A2780 = settings: Homo sapiens; A2780, ovary
Method in brief: as §1

SCC25 = settings: Homo sapiens, SCC-25; SCC25, head and neck
Method in brief: as §1

HOS = settings: Homo sapiens, bone
Method in brief: as §1

NOS1 = settings: NOS1, bone
Method in brief: as §1

NCIH1651 = settings: Homo sapiens, NCI-H1651; NCIH1651, lung
Method in brief: as §1

VMRCRCW = settings: kidney
Method in brief: as §1

22RV1 = settings: Homo sapiens; 22RV1, prostate
Method in brief: as §1

HS888T = settings: bone
Method in brief: as §1

NCIH1299 = settings: Homo sapiens, NCI-H1299; NCIH1299, lung
Method in brief: as §1

NCIH1838 = settings: Homo sapiens, NCI-H1838; NCIH1838, lung
Method in brief: as §1

JIMT1 = settings: Homo sapiens, JIMT-1; JIMT1, breast
Method in brief: as §1

HBCx2 = settings: HBCx2, breast
Method in brief: as §1

BICR6 = settings: BICR6, head and neck
Method in brief: as §1

LNCAP = settings: Homo sapiens, prostate
Method in brief: as §1

LUDLU1 = settings: LUDLU-1; LUDLU1, lung
Method in brief: as §1

RCM1 = settings: Homo sapiens, RCM-1; RCM1, colon
Method in brief: as §1

NCIH1573 = settings: Homo sapiens, NCI-H1573; NCIH1573, lung
Method in brief: as §1

A2058 = settings: Homo sapiens; A2058, skin
Method in brief: as §1

NCIH1648 = settings: Homo sapiens, NCI-H1648; NCIH1648, lung
Method in brief: as §1

JHH7 = settings: JHH7, liver
Method in brief: as §1

GSU = settings: stomach
Method in brief: as §1

SAOS2 = settings: Homo sapiens, SAOS-2; SAOS2, bone
Method in brief: as §1

PECAPJ49 = settings: PECAPJ49, head and neck
Method in brief: as §1

SNU8 = settings: SNU8, ovary
Method in brief: as §1

SNGM = settings: uterus
Method in brief: as §1

LU99 = settings: Homo sapiens, Lu-99; LU99, lung
Method in brief: as §1

SNU1076 = settings: SNU1076, head and neck
Method in brief: as §1

HPAFII = settings: Homo sapiens, HPAF-II, pancreas
Method in brief: as §1

| Compound | IC50 (TGBC1TKB) [nM] | IC50 (OVA2BUR) [nM] | IC50 (SUM149PT) [nM] | IC50 (YKG1) [nM] | IC50 (U2OS) [nM] | IC50 (HEC1B) [nM] | IC50 (HT144) [nM] | IC50 (BT474) [nM] | IC50 (PK45H) [nM] | IC50 (HBCx17) [nM] | IC50 (A2780) [nM] | IC50 (SCC25) [nM] | IC50 (HOS) [nM] | IC50 (NOS1) [nM] | IC50 (NCIH1651) [nM] | IC50 (VMRCRCW) [nM] | IC50 (22RV1) [nM] | IC50 (HS888T) [nM] | IC50 (NCIH1299) [nM] | IC50 (NCIH1838) [nM] | also measured |
| --- | --- | --- | --- | --- | --- | --- | --- | --- | --- | --- | --- | --- | --- | --- | --- | --- | --- | --- | --- | --- | --- |
| COc1ncnc(C2CC2)c1-c1ncc2cnn(Cc3ccc(-c4nc(C(F)(F)F)cn4C)cc3)c2n1 [Formula II, 6-(4-cyclopropyl-6-methoxypyrimidin-5-yl)-1-(4-(1-methyl-4-(trifluoromethyl)-1H-imidazol-2-yl)benzyl)-1H-pyrazolo[3,4-d]pyrimidine] | > 300 | > 300 | > 300 | > 300 | > 300 | > 300 | 84.3 | > 300 | 294 | > 300 | > 300 | > 300 | > 300 | > 300 | 85.7 | > 300 | > 300 | > 300 | > 300 | > 300 | IC50 (JIMT1): 16.6 nM; IC50 (HBCx2): > 300 nM; IC50 (BICR6): > 300 nM; IC50 (LNCAP): > 300 nM; IC50 (LUDLU1): > 300 nM; IC50 (RCM1): > 300 nM; IC50 (NCIH1573): 227 nM; IC50 (A2058): > 300 nM; IC50 (NCIH1648): > 300 nM; IC50 (JHH7): > 300 nM; IC50 (GSU): > 300 nM; IC50 (SAOS2): > 300 nM; IC50 (PECAPJ49): > 300 nM; IC50 (SNU8): > 300 nM; IC50 (SNGM): > 300 nM; IC50 (LU99): 35.4 nM; IC50 (SNU1076): > 300 nM; IC50 (HPAFII): > 300 nM |
| NC(=O)c1cccc2cn(-c3ccc([C@@H]4CCCNC4)cc3)nc12 [Niraparib, niraparib, reference compound] | > 300 | > 300 | 135 | > 300 | > 300 | > 300 | 114 | > 300 | > 300 | 13.8 | > 300 | > 300 | > 300 | > 300 | 32.4 | > 300 | > 300 | > 300 | > 300 | > 300 | IC50 (JIMT1): 25.3 nM; IC50 (HBCx2): > 300 nM; IC50 (BICR6): 149 nM; IC50 (LNCAP): > 300 nM; IC50 (LUDLU1): > 300 nM; IC50 (RCM1): > 300 nM; IC50 (NCIH1573): 15.2 nM; IC50 (A2058): 58.4 nM; IC50 (NCIH1648): > 300 nM; IC50 (JHH7): > 300 nM; IC50 (GSU): > 300 nM; IC50 (SAOS2): 201 nM; IC50 (PECAPJ49): > 300 nM; IC50 (SNU8): > 300 nM; IC50 (SNGM): > 300 nM; IC50 (LU99): 88.6 nM; IC50 (SNU1076): > 300 nM; IC50 (HPAFII): > 300 nM |

Source: patent US20230277533A1, “THERAPEUTIC COMBINATIONS COMPRISING UBIQUITIN-SPECIFIC-PROCESSING PROTEASE 1 (USP1) INHIBITORS AND POLY (ADP-RIBOSE) POLYMERASE (PARP) INHIBITORS” (KSQ Therapeutics, Inc., priority 2020, published 2023)
